Test results reported in patent US7737128B2, “Pyrimidines, such as uridine, in treatments for patients with bipolar disorder” (The McLean Hospital Corporation, priority 2004, dated 2010).
Where two headings read alike, the source gives them in different places.

Legend:
[1] = metabolites, not the prodrug, are observed in blood; cited from earlier work
[2] = test system: blood lactate levels; test: Plasma lactate elevation after oral gavage (stress response) during repeat dose toxicology study; type: in vivo, rats; details: rat plasma lactate
[3] = test system: patients with bipolar disorder; test: Phase I 6-week open-label clinical trial in outpatients with bipolar disorder (rating scales, patient histories)
From the text: The new methods are based on a Phase I open-label clinical trial of RG2133, a prodrug of uridine, designed to assess the impact of uridine in patients with bipolar disorder. […] The trial assessed the impact of daily, oral administration of escalating doses of RG2133 over a 6 week period on the symptoms associated with bipolar disorder, which are not adequately treated with existing drugs including SSRIs such as Prozac® or Zoloft®. The trial included 11 patients.
Outpatients with bipolar disorder were recruited for this 6-week open-label study. Patients' daily dose amounts were divided into three daily doses. Subjects received an initial RG2133 dose of 6 g/day. […] Subjects were monitored for changes in mood using standard rating scales. The subjects' physical status was followed clinically and with standard laboratory measures to monitor for any adverse effects and/or toxicity.
During the baseline visit, a detailed psychiatric and medical history was obtained, and the following standard rating scales were performed: Structured Clinical Interview for DSM-IV (SCID) for diagnosis, Young Mania Rating Scale (YMRS), Montgomery-Asberg Depression rating Scale (MADRS), the Hamilton Anxiety Scale (HAMA), Clinical Global Impression scale (CGI), the Global Assessment of Function (GAF) scale, quality of life scale (SF-36), as well as a brief adverse-effect rating scale.
After the baseline evaluation, patients returned for office visits at weeks 1, 2, 3, 4, and 6. The same rating scales were performed at each follow-up office visit, except for the SCID. Instead of the full SCID at the follow-up visits, only the SCID screening questions for mania and depression were performed to aid in the determination of syndromic recovery or recurrence. In addition, patients maintained a daily Mood Diary, which was reviewed at each study visit to elicit symptom recall. Routine clinical and laboratory evaluations of each patient's physical status occurred at baseline and at regular intervals. Subjects were monitored for changes in mood using standard rating scales. The subjects' physical status was followed clinically and with standard laboratory measures to monitor for any adverse effects and/or toxicity.
During the study patients were evaluated using the Montgomery-Asberg Depression Rating Scale (MADRS). This scale measures the effect of treatment on depression severity relative to a baseline assessment before treatment. The MADRS measures the severity of a number of symptoms on a scale from 0 to 60, including mood and sadness, tension, sleep, appetite, energy, concentration, suicidal ideation, and restlessness. Increasing scores reflect a greater severity of depression. Scores of 15-25 on the MADRS scale indicate moderate depression. Scores above 25 indicate clinically severe depression.
During the study patients were also evaluated using the Young Mania Rating Scale (YMRS). This scale assesses the severity of mania in patients already diagnosed with mania based on a personal interview. Scores of 1 to 12 are not considered to be suffering from mania, whereas a score of 13 indicates minimal mania. Increasing scores to 44, indicate progressively severe mania.
During the study patients were also evaluated using Clinical Global Impression (CGI) scale. A clinician rated the severity of the patient's illness relative to the clinician's past experience with patients with the same diagnosis. At the outset of the study a clinician created a baseline single item score on a 7 point scale from 1 (‘normal’, not ill) to 7 (extremely ill). CGI was then used to track the clinical distance between a patient's individual's current condition and his or her baseline condition at the start of treatment.
During the study patients were evaluated using Global Assessment of Functioning (GAF), which is a modified version of the Global Assessment Scale (GAS).

[4] = test system: fluorouracil toxicity; details: cited from earlier work
[5] = in vivo; details: both sexes, Crl: CD (SD)IGS BR, rat, po
Description: RG2133 has been tested in a repeat dose rodent toxicity and toxicokinetic study. Three groups of ten male and ten female rats (Crl: CD® (SD)IGS BR strain) received RG2133 orally, by gavage, at dosages of 300, 1000, or 2000 mg/kg/day (administered as 150, 500, or 1000 mg/kg b.i.d.) in aqueous 1% carboxymethylcellulose with methyl paraben (at 1.8 g/l) and propyl paraben (at 0.2 g/l) for four weeks. Animals were examined by observation and lab analysis of blood and urine for evidence of toxicity, and results are shown in Table 1. Tissues were examined microscopically for evidence of drug related toxicity. […] The no-observed-adverse-effect-level (NOAEL) was considered to be 2000 mg/kg/day (1000 mg/kg b.i.d.).

[6] = test system: patients with bipolar disorder; test: Adverse events in the 6-week patient study; type: in vivo, human
From the text: The total number of adverse events is reported by the number and percentage of subjects experiencing each adverse event. If a subject reported the same adverse event over the course of the study, that event was counted once.
During the course of the 6-week study, there were some reported side effects to the medication. 1 subject reported stomach cramps, 1 reported nausea, 4 reported decreased appetite, 3 reported an increase in constipation, 4 reported diarrhea, 1 reported muscle cramps, 2 reported headaches, 1 reported fatigue, 2 reported problems with sleeping, 2 reported increased flatulence, and 1 reported a decrease in libido. In addition, one subject reported changes in their vision that affected their depth perception. […] The subject independently decided to increase their dose back to its original amount in response to their manic reaction to the decreased dose. Due to this protocol deviation, and the subject's manic break, the subject was terminated from the study.

[7] = in vivo; cited from earlier work
[8] = cited from earlier work
[9] = oral, cited from earlier work
[10] = uridine infusion, cited from earlier work
[11] = bipolar patients, daily oral escalating doses, 6 weeks

CC(=O)OC[C@H]1O[C@@H](n2ccc(=O)[nH]c2=O)[C@H](OC(C)=O)[C@@H]1OC(C)=O [RG2133, 2′,3′,5′-tri-O-acetyluridine]
Metabolism of enteral dosages [1]: rapidly metabolized to uridine and uracil
Effect on lactate level relative to normal baseline value (2.4 mM) [2]: did not reduce the lactate level below the normal baseline value
Individual patient: mania-type event ([3]; Patient #3, bipolar II, on antidepressant, 12 g/day): slight hypomania at week three
Individual patient: reported mood ([3]; Patient #4, bipolar I, on antidepressant, 6 to 12 g/day): feeling stable
Individual patient: mood at end of study ([3]; Patient #4, week six): mood deteriorated at week six
Individual patient: mania-type event ([3]; Patient #4, week three): some hypomania at week three
Individual patient: reported mood ([3]; Patient #5, bipolar I, no antidepressant, 6 g/day): significant change in mood at week one
Individual patient: adverse effect ([3]; Patient #6): some eye pain
Individual patient: reported mood ([3]; Patient #6, no antidepressant, 6 g/day): feeling significantly better than they had in two years
Individual patient: reported mood ([3]; Patient #7, bipolar I, on antidepressant, 6 to 18 g/day): no change in mood
Individual patient: adverse event ([3]; Patient #11): severe bout of colitis
Individual patient: bipolar symptoms ([3]; Patient #11, bipolar II, on antidepressant, 12 g/day): complete remission at week four
Individual patient: adverse effect ([3]; Patient #13): slight change in depth perception leading to two falls
Individual patient: reported mood ([3]; Patient #13, bipolar I, no antidepressant, 6 to 9 g/day): feeling less depressed and more hopeful
Individual patient: complaints ([3]; Patient #15, after three weeks): dizziness spells, constipation, and a reported manic episode
Individual patient: reported mood ([3]; Patient #15, bipolar II, no antidepressant, 6 to 12 g/day): feeling less volatile and fewer mood swings
Individual patient: complaints ([3]; Patient #16): loose stools and increased flatulence
Individual patient: reported mood ([3]; Patient #16, bipolar II, on antidepressant, 6 to 12 g/day): no change in mood
Individual patient: complaints ([3]; Patient #17): loose stools and increased flatulence
Individual patient: reported mood ([3]; Patient #17, bipolar II, on antidepressant, 6 to 12 g/day): no change in mood
Average GAF score ([3]; after week four (FIG. 4)): declined to a level slightly above the initial GAF score
Average GAF score ([3]; beginning of the study to week four (FIG. 4)): improved slightly
Average MADRS scores ([3]; between week three and week six (FIG. 1)): rose slightly
Induction of mania [3, 11]: did not induce mania
Safety of administration [3, 11]: safe
Average female CGI scores ([3]; course of the study relative to initial score, unlike male scores (FIG. 7)): improved
Averaged YMRS scores ([3]; during the course of the study (FIG. 2)): slight decrease
Average HAM-A score ([3]; during the course of the study (FIG. 5)): went down slightly
Female YMRS scores vs initial baseline ([3]; during the study (FIG. 6)): did not increase above the initial baseline score
Average CGI score ([3]; end of the study vs baseline (FIG. 3)): somewhat above baseline
Average MADRS scores ([3]; first three weeks of treatment (FIG. 1)): slight decrease
Average YMRS, female patients ([3]; first three weeks, female vs male (FIG. 6)): declined slightly more than males
Average CGI scores, patients not taking antidepressant ([3]; vs patients on antidepressant medication (FIG. 8)): faster decline
CGI ([3]; weeks one to three (FIG. 3)): improved slightly
CGI ([3]; weeks three to six (FIG. 3)): deteriorated slightly
Effect on patients' depression (MADRS) ([3]; whole study): did not significantly worsen patients' depression
Effect on hematologic toxicities associated with fluorouracil ([4]; 6 g/dose every 6 hours): reduction in hematologic toxicities
Adverse effect seen ([4]; cancer patients, toxicity evaluation equivocal because of cancer and fluorouracil toxicities): Diarrhea
peak blood uridine levels ([4]; suspension and tablet forms, 6 g/dose every 6 hours for 9 doses): 167 µM
NOAEL at 28 days [5]: 2000 mg/kg/day
Subjects reporting a decrease in libido ([6]; 6-week study): 1
Subjects reporting an increase in constipation ([6]; 6-week study): 3
Subjects reporting changes in vision that affected depth perception ([6]; 6-week study): one
Subjects reporting decreased appetite ([6]; 6-week study): 4
Subjects reporting diarrhea ([6]; 6-week study): 4
Subjects reporting fatigue ([6]; 6-week study): 1
Subjects reporting headaches ([6]; 6-week study): 2
Subjects reporting increased flatulence ([6]; 6-week study): 2
Subjects reporting muscle cramps ([6]; 6-week study): 1
Subjects reporting nausea ([6]; 6-week study): 1
Subjects reporting problems with sleeping ([6]; 6-week study): 2
Subjects reporting stomach cramps ([6]; 6-week study): 1
Subjects reporting weaker vision ([6]; 6-week study): Another subject
Subjects reporting a manic episode ([6]; week 3, after reducing the dose): One

O=c1ccn([C@@H]2O[C@H](CO)[C@@H](O)[C@H]2O)c(=O)[nH]1 [uridine]
volume distribution [7]: around 0.634 liters/kg
Effect of higher dosages ([8]; above 1000 mg/kg/day, some patients): mild diarrhea
Dosages with no known toxic effects ([8]; pure uridine, long-term experience): up to 1000 mg/kg/day
Reported effects ([9]; 10 or 12 g/m^2): cramps and diarrhea
maximum tolerated dose without side effects ([9]; multiple dosing every 6 hours): 5 g/m^2
Reported effects ([9]; repeat doses every 6 hours of 8 g/m^2): diarrhea
maximum tolerated dose without side effects ([9]; single dose): 10 g/m^2
Bioavailability [9]: 5.8-9.9%
Doses at which no toxicity was observed [9]: ≤ 8 g/m^2
peak plasma levels of uridine [9]: 80 µM
Plasma concentrations above baseline values ([10]; baseline 3 μM): > 100 fold
Observed side effect [10]: fever
